The source made the active and inactive calls.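 Rule for the calls: active = compounds giving half or more protection of infected cells from virus-caused growth loss, again on retest; inactive = the rest.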
System: CEM cells HIV-1 protection, formazan growth assay
Assay: NCI AIDS Antiviral Assay
Conditions: for IC50: measured here: growth of uninfected CEM cells
Procedure, shortened: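 Human CEM cells, uninfected and HIV-1-infected, exposed to five drug concentrations; growth measured by soluble formazan assay and scored as percent protection from infection, with protecting compounds retested.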

Compound	outcome	EC50	IC50
COc1ccc(-c2oc3cc(O)c(OC)c(O)c3c(=O)c2OC2OC(CO)C(O)C(O)C2O)cc1 (configuration not stated)	inactive	–	–
COC(=O)N1C2C(C[C@@]1(C)C(=O)OC)c1ccccc1N2S(=O)(=O)c1ccccc1 (some centres not stated)	–	> 200 µM	> 200 µM
COC(=O)c1nc(N)[nH]c(=O)c1CCCCCc1c(C(=O)OC)nc(N)[nH]c1=O	–	> 17.8 µM	> 17.8 µM
CCCCCCCCCCCC(=O)OCC1OC(n2cc(F)c(=O)[nH]c2=O)C(NC(=O)OCc2ccccc2)C(OC(=O)CCCCCCCCCCC)C1O (configuration not stated)	–	> 6.61 µM	> 6.61 µM
Nc1nc(Cl)cc(OCC2(CO)CC=CC2)n1	–	> 200 µM	126 µM
Nc1ccc2c(c1)C1=NNC(=O)CC1C2 (configuration not stated)	inactive	–	–
CC=C(c1cc(Br)c(OC)c(C(=O)OC)c1)c1cc(Br)c(OC)c(C(=O)OC)c1	–	> 200 µM	13.5 µM
Cc1sc2nc3n(c(=O)c2c1C)N=C(c1ccc(Cl)cc1)CS3	–	> 200 µM	> 200 µM
O=C(O)c1cccc2cccc(C(=O)O)c12.[Hg]	inactive	–	–
O=c1nc2[nH]nc(-c3ccccc3)c2n[nH]1	inactive	–	–
C/C(CC(=O)Nc1ccc(C)c(C)c1)=N\NC(N)=S	–	> 891 µM	117 µM
CCc1c(O)c2c(c(O)c1C(C)=O)C(=O)c1c(cc(O)c(C(=O)O)c1C(=O)O)C2=O	–	> 33.1 µM	> 33.1 µM
CN/N=C(\C(=O)Nc1ccc(C(F)(F)F)cc1[N+](=O)[O-])C(c1cnc2ccc([N+](=O)[O-])cc2n1)[N+](=O)[O-] (configuration not stated)	–	> 251 µM	138 µM
CN(C)CC1CCCC/C1=N/O (configuration not stated)	inactive	–	–
COc1ccc(-c2nc(N3CCCC3)no2)cc1	–	> 200 µM	195 µM
Cc1ccc(SC23C=CC(CC24CCOC4=O)OC3=O)cc1 (configuration not stated)	–	> 200 µM	> 200 µM
CCN(CC)CCNc1nc2c([nH]1)c(=O)n(C)c(=O)n2C	–	> 759 µM	219 µM
COc1cc(-c2coc3cc(O)ccc3c2=O)c(O)c(OC)c1OC	–	> 200 µM	72.4 µM

Compound	outcome	EC50	IC50
C=C(C)C(=Nc1ccc(Cl)c(Cl)c1)N(C)C	inactive	–	–
C#Cc1c(C)c(/C=C/C(C)=C/C=C/C(C)=C/C(=O)OC)n(C)c1C	–	> 22.4 µM	> 22.4 µM
COc1ccc(NC(=O)C(=O)/C=C(\O)c2ccccc2)cc1	–	> 200 µM	9.33 µM
CC1=CC(=O)C(C)(C2=NC(C)(C)CO2)c2ccccc21 (configuration not stated)	–	51.3 µM	575 µM
CC(O)c1ccc(C(O)/C(=N\NC(=O)c2ccncc2)c2nc3ccc([N+](=O)[O-])cc3[nH]c2=O)cc1 (configuration not stated)	–	> 74.1 µM	60.3 µM
O=Cc1cc2c(cc1-c1cc3c(cc1C=O)OCO3)OCO2	–	> 107 µM	> 107 µM
Cc1nc(C(N)=S)sc1/C(CC(=O)C(=O)Nc1cccc2ccc(O)cc12)=N\NC(=O)c1ccncc1	–	> 35.5 µM	> 35.5 µM
CN1C2CC(=O)CC1[C@@H]1OC(c3ccccc3)O[C@H]21 (some centres not stated)	–	> 200 µM	> 200 µM
O=S(=O)(Oc1ccc2ccccc2c1-c1c(OS(=O)(=O)C(F)(F)F)ccc2ccccc12)C(F)(F)F	inactive	–	–
[N-]=[N+]=NCC(CO)OCn1cc(Cc2cccc(OCc3ccccc3)c2)c(=O)[nH]c1=O (configuration not stated)	inactive	–	–
O=C1C2C3C=CC(C2C(=O)N1COP(=O)(O)O)C1C2C(=O)N(COP(=O)(O)O)C(=O)C2C31 (configuration not stated)	–	> 100 µM	> 100 µM
CC(C)(C)OC(=O)NC(Cc1ccccc1)C(=S)N1CCCC1 (configuration not stated)	–	56.2 µM	141 µM
COc1ccc(/C=N/O)cc1OC	–	> 1380 µM	776 µM
O=C1CN(Cc2cccc(Cl)c2)CC(=O)N2Cc3ccccc3CN12	inactive	–	–
Cc1cc(=O)oc2cc(SC(=O)N(C)C)ccc12	–	> 200 µM	> 200 µM
COc1ccc(NCC(=O)Nn2c(C)nc3ccc(S(=O)(=O)Nc4ccc(OC)cc4)cc3c2=O)cc1	–	> 100 µM	> 100 µM
c1ccc(NC[Si]23OCCN(CCO2)CCO3)cc1	inactive	–	–
C/C=C(\C)C(=O)c1c(OCC)cc(OCC)c2c(CCC)cc(=O)oc12	–	> 126 µM	1.91 µM
